Measurements from patent US5157123A, “S-(2-thiopyridyl)-L-cysteine, a heterobifunctional crosslinking reagent” (priority 1989, dated 1992).
Structures can show the parent of a compound that is named as a salt.

Columns and labels:
[1] = Water solubility of crosslinkers; type: physicochemical; conditions: distilled water
[2] = test system: human monoclonal IgM antibody 1688; test: Incorporation of TPCH versus TPMPH into IgM antibody 1688 (periodate oxidation, pyridine-2-thione release at 343 nm); conditions: identical coupling conditions, FIG. 2
Method: Human IgM (2.5 mg) in 0.1M sodium acetate, pH 5.5 (1 mg IgM/ml) was oxidized in the presence of 10.7 mg (50 μmoles) NaIO4 and 7 mg (19.8 μmoles) of TPCH. After 20 minutes at 0° C. the reaction mixture was chromatographed on a Sephadex G-25 column to remove access NaIO4 and uncoupled TPCH. The derivatized IgM molecules were eluted with 0.1M sodium phosphate, 0.1M sodium chloride, pH 7.5, and stored at 4° C. The extent of modification was determined to be 17 TPCH molecules per IgM by monitoring the release of pyridine-2-thione at 343 nm during incubation of the derivatized antibody in the presence of 10 mM dithiothreitol as described in J. Carlsson, H. Drevin, and R. Axen, Biochem. J., vol. […]
Human IgM (2.5 mg) was oxidized in 1.25 ml of 0.1M sodium acetate, pH 5.5, in the presence of 5.3 mg sodium periodate with either 6.9 mg (20 μmoles) of TPCH trihydrochloride (M.W.=353.5 daltons) or 4.4 mg (20 μmoles) of TPMPH (M.W.=229.3 daltons) at 0° C. […] The derivatized IgM molecules were eluted with 0.1M sodium phosphate, 0.1 M sodium chloride, pH 7.5 The extent of modification was determined as described above.
Human IgM (2.5 mg) was oxidized in the presence of 0.27 mg sodium periodate under identical conditions as described above. The extent of derivatization was determined after 20 minutes of incubation using the procedure described above.

| SMILES | maximum solubility [1] | increase in time required for incorporation of comparable amounts of crosslinker per antibody, versus TPCH [2] | water solubility (concentration to which it can be easily dissolved) [1] |
| --- | --- | --- | --- |
| NNC(=O)CCSSc1ccccn1 [TPMPH, S-(2-thiopyridyl)-mercaptopropionic acid hydrazide] | 150 mM | ~3 fold |  |
| NNC(=O)[C@@H](N)CSSc1ccccn1 [TPCH, S-(2-Thiopyridyl)-L-Cysteine Hydrazide Trihydrochloride] |  |  | ≥ 1000 mM |
